Where two headings read alike, the source gives them in different places.
Columns and labels:
LSD1 [1] = molecular target: T1, LSD1 (Homo sapiens, UniProt O60341); assay: LSD1 enzymatic assay; format: biochemical; settings: for Bottom / Top / Hillslope: concentration-response curve fit parameter;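 on Bottom: percent inhibition of LSD1 activity from the fitted dose-response curve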;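 on Top: percent inhibition of LSD1 activity from the fitted dose-response curve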
Procedure: A total of 12 compounds were purchased from J&K Scientific Ltd. (Shanghai, China). The biological experiments of inhibiting the enzymatic activity of LSD1 by 12 test compounds were conducted by Pharmaron (Beijing, China). Each compound was serially diluted 4-fold in 100% dimethyl sulfoxide (DMSO) from a starting DMSO stock concentration of 20 mM to obtain 10 concentration doses. Seclidemstat was used as a positive control. The diluted compounds were added to the LSD1 assay buffer (50 mM Tris-HCl, pH 7.5, and 1% DMSO) and incubated with LSD1 for 30 min at room temperature. The peptide substrate was then added to initiate the reaction, and the mixture was further incubated for 60 min at room temperature. The reaction was stopped by adding the stop solution, followed by the addition of the detection solution containing protein-A-Eu, streptavidin-d2, and anti-Histone H3 (dimethyl K9) antibody. […] The IC50 was calculated using a nonlinear regression (dose response – variable slope) by fitting the inhibition ratio and log of compound concentrations using Graphpad 8.0.

[2] = molecular target: double-mutant EGFR (T790M/L858R) (Homo sapiens, UniProt P00533, L858R/T790M); assay: EGFR kinase assay (HTRF), double mutant; format: biochemical
Chain of double-mutant EGFR (T790M/L858R) (P00533 25-1210 T790M/L858R): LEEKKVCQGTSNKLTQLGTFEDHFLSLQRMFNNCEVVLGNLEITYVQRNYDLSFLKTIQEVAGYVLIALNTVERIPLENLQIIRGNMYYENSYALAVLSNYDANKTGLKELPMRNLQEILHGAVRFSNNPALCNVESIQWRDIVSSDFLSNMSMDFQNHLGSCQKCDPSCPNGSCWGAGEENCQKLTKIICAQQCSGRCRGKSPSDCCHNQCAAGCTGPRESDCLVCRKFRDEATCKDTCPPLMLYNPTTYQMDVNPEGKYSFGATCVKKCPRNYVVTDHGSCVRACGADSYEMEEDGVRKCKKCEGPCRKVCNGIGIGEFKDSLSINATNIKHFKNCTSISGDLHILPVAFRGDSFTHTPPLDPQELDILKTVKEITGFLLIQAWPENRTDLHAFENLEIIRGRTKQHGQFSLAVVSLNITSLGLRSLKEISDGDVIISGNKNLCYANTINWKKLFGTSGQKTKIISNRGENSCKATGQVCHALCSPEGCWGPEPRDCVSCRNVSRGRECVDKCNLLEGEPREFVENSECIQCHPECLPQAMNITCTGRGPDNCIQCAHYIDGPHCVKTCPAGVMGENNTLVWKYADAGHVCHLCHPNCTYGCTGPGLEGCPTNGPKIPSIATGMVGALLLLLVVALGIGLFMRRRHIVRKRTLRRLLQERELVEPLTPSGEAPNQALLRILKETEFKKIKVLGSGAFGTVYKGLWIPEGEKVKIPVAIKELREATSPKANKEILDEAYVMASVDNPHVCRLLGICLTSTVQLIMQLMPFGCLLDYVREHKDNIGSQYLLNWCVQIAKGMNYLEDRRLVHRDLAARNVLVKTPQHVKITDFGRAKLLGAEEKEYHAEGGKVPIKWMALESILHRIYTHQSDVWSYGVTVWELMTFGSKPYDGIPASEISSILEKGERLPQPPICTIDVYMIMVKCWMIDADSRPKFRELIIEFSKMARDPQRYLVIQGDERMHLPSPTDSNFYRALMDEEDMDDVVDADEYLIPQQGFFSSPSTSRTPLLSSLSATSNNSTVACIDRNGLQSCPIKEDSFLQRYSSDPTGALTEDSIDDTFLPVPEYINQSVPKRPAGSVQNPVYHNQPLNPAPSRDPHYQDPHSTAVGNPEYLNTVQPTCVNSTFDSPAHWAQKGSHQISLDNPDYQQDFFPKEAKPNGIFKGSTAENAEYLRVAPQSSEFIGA
Procedure: (§1) The biological experiments of inhibiting the activity of EGFR by test compounds were also performed by Pharmaron (Beijing). To conduct the kinase assay, the following steps were followed:
(§2) % Inhibition is calculated as follow: %Inhibition=1−SINGALcmpd−SINGALave−pc/SINGALave−vc−SINGALave−pc×100
(§3) SINGALcmpd = singal for compound being tested
(§4) SINGALave_pc = singal for positive controls
(§5) SINGALave_vc = singal for vehicle controls

[3] = molecular target: triple-mutant EGFR (L858R/T790M/C797S) (Homo sapiens, UniProt P00533, C797S/L858R/T790M); assay: EGFR kinase assay (HTRF), triple mutant; format: biochemical
Chain of triple-mutant EGFR (L858R/T790M/C797S) (P00533 25-1210 T790M/C797S/L858R): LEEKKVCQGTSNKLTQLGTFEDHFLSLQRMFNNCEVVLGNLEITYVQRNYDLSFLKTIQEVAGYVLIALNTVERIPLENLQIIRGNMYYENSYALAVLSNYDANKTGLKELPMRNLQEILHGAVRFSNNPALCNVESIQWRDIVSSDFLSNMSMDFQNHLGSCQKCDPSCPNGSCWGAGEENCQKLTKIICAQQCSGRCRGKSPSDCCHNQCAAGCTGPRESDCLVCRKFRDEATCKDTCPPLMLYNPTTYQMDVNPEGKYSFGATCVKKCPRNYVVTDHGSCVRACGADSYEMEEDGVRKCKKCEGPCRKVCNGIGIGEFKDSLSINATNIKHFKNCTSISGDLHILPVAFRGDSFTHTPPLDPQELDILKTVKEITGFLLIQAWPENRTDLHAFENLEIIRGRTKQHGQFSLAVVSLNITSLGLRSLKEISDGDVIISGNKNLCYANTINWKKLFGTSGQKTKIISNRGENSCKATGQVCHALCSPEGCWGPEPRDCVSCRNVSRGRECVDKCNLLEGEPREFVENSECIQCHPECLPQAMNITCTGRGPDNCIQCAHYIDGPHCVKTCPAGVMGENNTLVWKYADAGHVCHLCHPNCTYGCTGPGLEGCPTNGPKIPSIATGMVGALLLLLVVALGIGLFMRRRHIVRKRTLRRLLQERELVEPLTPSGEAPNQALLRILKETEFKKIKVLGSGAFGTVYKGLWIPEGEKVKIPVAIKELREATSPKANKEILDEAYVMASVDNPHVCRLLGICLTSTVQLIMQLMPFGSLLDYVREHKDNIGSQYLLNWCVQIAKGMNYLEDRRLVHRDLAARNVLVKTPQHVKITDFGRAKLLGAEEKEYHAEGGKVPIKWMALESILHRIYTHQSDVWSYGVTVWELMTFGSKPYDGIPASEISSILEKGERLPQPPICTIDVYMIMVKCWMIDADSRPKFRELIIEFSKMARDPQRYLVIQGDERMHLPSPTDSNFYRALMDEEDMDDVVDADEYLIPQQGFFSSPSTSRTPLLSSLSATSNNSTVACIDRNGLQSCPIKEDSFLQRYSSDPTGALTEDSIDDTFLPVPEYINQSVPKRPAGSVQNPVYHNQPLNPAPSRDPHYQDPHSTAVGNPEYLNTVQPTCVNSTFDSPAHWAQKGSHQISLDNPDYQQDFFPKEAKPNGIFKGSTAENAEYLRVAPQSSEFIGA
Procedure: as §1, §2, §3, §4, §5

[4] = system: BaF3 cells stably expressing EGFR (L858R/T790M/C797S); assay: BaF3 cell assay (CTG luminescence); settings: Mus musculus, BaF3, read-out: BaF3 cell assay IC50 (μM) L858R/T790M/C797S
[5] = system: BaF3 cells harboring EGFR L858R/T790M/C797S mutant; design: method as in PMID 30429956; settings: read-out: IC50 BaF3 cells harboring EGFR L858R/T790M/C797S, previous studies; cited from earlier work
EGFR-mutant NSCLC cells = system: EGFR-mutant NSCLC cells; design: method as in Hu et al. [61]; settings: ref Hu et al. [61]; cited from earlier work
EGFR wild-type cells = system: EGFR wild-type cells; design: method as in Hu et al. [61]; settings: ref Hu et al. [61]; cited from earlier work
LSD1 [6] = molecular target: T1, LSD1; assay: SPR binding assay (Biacore T200)
Procedure: Surface plasmon resonance (SPR) was employed to evaluate direct binding between compounds and LSD1 using Biacore T200 optical biosensor (Biacore Life Sciences, GE Healthcare). LSD1 was covalently attached to CM5 sensor chip via amine coupling. Binding experiments were conducted at 15 °C in a buffer containing 10 mM HEPES (pH 7.4), 150 mM NaCl, 1% DMSO, and 0.05% Tween, with a flow rate of 30 μL/min. Compounds were serially diluted in the same buffer and injected over the prepared surfaces for 15–25 s at increasing concentrations. Sensorgrams were corrected by subtracting signals from both an untreated reference channel and blank injections. Data analysis was performed using Biacore T200 evaluation software (GE Healthcare).

[7] = system: PC9 cells (with EGFR mutant); assay: Cell proliferation assay (cell number counting), PC9; format: cell-based
Procedure: (§6) Lung cancer H460, H1299, PC9, and H1975 cells were purchased from Procell (Wuhan, China) and cultured in RPMI-1640 medium (Thermo Fisher Scientific, MA, USA) supplemented with 10% fetal bovine serum (FBS, ExCell Bio, Shanghai, China). For cell proliferation assay, the cells were seeded in a 24-well plate (0.5 × 10^4 cells/well), then treated with L-1 with increasing concentrations (0, 2.5, 5, 10, 20, 40 μM) or vehicle alone. Cell numbers were counted using try-pan blue exclusion on the fourth day.

[8] = system: H1975 cells (with EGFR mutant); assay: Cell proliferation assay (cell number counting), H1975; format: cell-based
Procedure: as §6

[9] = system: H460 cells (with EGFR wild type); assay: Cell proliferation assay (cell number counting), H460; format: cell-based; settings: 0-40 μM, counted on the fourth day
Procedure: as §6

[10] = system: H1299 cells (with EGFR wild type); assay: Cell proliferation assay (cell number counting), H1299; format: cell-based; settings: 0-40 μM, counted on the fourth day
Procedure: as §6

[11] = system: H1975 cells-derived xenograft (CDX); assay: H1975 cell-derived xenograft (CDX) mouse model, tumor formation; format: in vivo, nude mice; settings: 75 and 150 mg/kg i.p. every two days, compared to control group
Procedure: (§7) Nude mice (nu/nu, female, 4–6-week-old) were purchased from Charles River (Beijing, China) and subcutaneously injected with 2 × 10^6 H1975 cells harboring on the right flank. Tumor growth was recorded by measurement of two perpendicular diameters using the equation: π/6 × length × width^2. To explore the effect of L-1 on tumorigenicity in lung cancer, when tumor volumes reached approximately 50 mm^3, mice received either vehicle control, L-1 (75 mg/kg) and L-1 (150 mg/kg), and they were administered every two days by i.p. injection. The mice were sacrificed, and the tumors were excised, imaged and weighed after inhibitor treatments. Statistical analyses have been done by comparison in relation to the control group with a two-tailed unpaired Student’s t test. The animal experiments were performed according to the institutional ethical guidelines approved by the Laboratory Animal Ethics Committee Nankai University.

[12] = Body weight of H1975 xenograft nude mice; format: in vivo; settings: 75 and 150 mg/kg i.p. every two days
Procedure: as §7

Ki67 = Ki67 immunohistochemical staining of CDX tumors; format: in vivo, nude mice; settings: CDX tumor, L-1 treatment group
Procedure: Immunohistochemistry was performed on paraffin-embedded sections. Tissue sections were dewaxed and rehydrated using standard protocol. Antigen retrieval was performed by boiling samples in citrate buffer for 45 min. Endogenous peroxidase activity was inhibited by using 3% hydrogen peroxidase. Sections were blocked in 3% BSA in PBS and incubated in primary antibody (Ki67, CST, MA, USA) overnight at 4 °C. Then the secondary antibody (Goat anti-rabbit IgG (H + L) HRP, Bioworld, OH, USA) was incubated at room temperature for 1.5 h and developed using DAB. Sections were counterstained with hematoxylin.

[13] = system: LSD1/EGFR relevant downstream signaling pathways; assay: Western blot of signaling pathway proteins in the H1975 CDX model; format: in vivo, nude mice
Procedure: Cells were lysed with lysis buffer (1.5 M NaCl, 1 M Hepes, 20% NP40, 0.1 M Na pyrophosphate, 0.1 M NaF, 0.1 M Na3VO4, 0.2 M glycerol phosphate) on ice for 30 min and then centrifuged at 12,000 r/min for 15 min at 4 °C. Protein samples were loaded into 12% SDS-PAGE, then separated by running for different voltage, and transferred onto PVDF membranes (Millipore, MA, USA). The membranes were blocked with 5% non-fat milk for 2 h and then incubated overnight at 4 °C or at room temperature for 2 h with the primary antibody and 1 h at room temperature with secondary antibody. Signals were detected using Luminol substrate solution (Millipore, MA, USA).

[14] = read-out: IC50 (μM) against LSD1
[15] = read-out: EGFR kinase assay IC50 (μM) L858R/T790M/C797S
[16] = 0-40 μM, counted on the fourth day
[17] = LSD1 knockdown compared to control cells

SMILES | Relative potency % (LSD1 [1]) [%] | Bottom (LSD1 [1]) | Top (LSD1 [1]) | IC50 (LSD1 [1]; [14]) [µM] | also measured
CCN(CC)c1ccc(/C=C2/C(=O)NC(=O)N(c3ccc(C(F)(F)F)cc3)C2=O)c(O)c1 [D-3] | 0.4 | 8.10 | 45.78 |  | IC50 (LSD1 [1]): 35.7 µM
Cc1ccc(-c2noc(-c3ccc(=O)n(CC(=O)NCc4ccccc4)c3)n2)cc1 [D-14] | 0.5 | −1.64 | 48.09 | 28.3 | Hillslope (LSD1 [1]): 2.53; IC50 [2]: 73.9 µM; IC50 [3, 15]: 86.7 µM; IC50 [4]: 2.45 µM
Cc1ccc(-c2noc(-c3ccc(=O)n(CC(=O)Nc4ccc(Br)cc4)c3)n2)cc1 [D-9] | 0.5 | 3.84 | 52.57 | 26.6 | 
COc1cc(N2CCC(N3CCN(C)CC3)CC2)ccc1Nc1ncc(Cl)c(Nc2ccccc2P(C)(C)=O)n1 [Brigatinib, reference compound] |  |  |  |  | IC50 [5]: 0.42 µM; IC50 [4]: 0.4 µM
CCCc1noc(-c2ccc(=O)n(CC(=O)Nc3ccccc3Br)c2)n1 [D-17] | 0.8 | −0.07 | 64.23 | 19.8 | IC50 [2]: > 100 µM; IC50 [3, 15]: > 100 µM
COc1ccccc1NC(=O)Cn1cc(-c2nc(-c3ccc(C)cc3)no2)ccc1=O [D-5] | 0.7 | 7.19 | 54.06 | 21.5 | Hillslope (LSD1 [1]): 2.04
Cc1ccc(-c2noc(-c3ccc(=O)n(CC(=O)Nc4ccc(C)cc4Br)c3)n2)cc1 [D-11] |  |  |  | > 100 | 
CCOc1ccccc1NC(=O)Cn1cc(-c2nc(-c3ccc(C)cc3)no2)ccc1=O [D-6] |  |  |  | > 100 | 
COc1cc(Cl)c(C)cc1NC(=O)Cn1cc(-c2nc(-c3ccc(C)cc3)no2)ccc1=O [D-12] |  |  |  | > 100 | 
CC(C)c1noc(-c2ccc(=O)n(CC(=O)Nc3ccccc3Br)c2)n1 [D-18] |  |  |  | > 100 | 
CCN(CC)c1ccc(/C=C2/C(=O)NC(=O)N(c3ccc(Cl)cc3)C2=O)cc1 [D-1] |  |  |  |  | IC50 (LSD1 [1]): > 100 µM
C/C(=N\NC(=O)c1cccc(S(=O)(=O)N2CCN(C)CC2)c1)c1cc(Cl)ccc1O [Seclidemstat, seclidemstat, reference compound] |  |  |  |  | IC50 (LSD1 [1]): 0.231 µM; Inhibition of LSD1 enzymatic activity (LSD1 [1]; at 10 μM): complete inhibition; Inhibitory activity against EGFR double mutant (in words) [2]: does not exhibit inhibitory activity; Inhibitory activity against EGFR triple mutant (in words) [3]: does not exhibit inhibitory activity; IC50 [4]: 0.98 µM
Cc1ccc(-c2noc(-c3cccn(CC(=O)Nc4ccccc4Br)c3=O)n2)cc1 [D-4] | 0.5 | 5.79 | 60.26 | 29.2 | Hillslope (LSD1 [1]): 4.05
Cc1ccc(-c2noc(-c3ccc(=O)n(CC(=O)Nc4ccccc4C(F)(F)F)c3)n2)cc1 [D-10] | 0.4 | 2.43 | 42.68 | 34.3 | 
C=CC(=O)Nc1cc(Nc2nccc(-c3cn(C)c4ccccc34)n2)c(OC)cc1N(C)CCN(C)C [Osimertinib] |  |  |  |  | effect on EGFR-mutant cells (EGFR-mutant NSCLC cells): significant inhibitory effect; effect on EGFR wild-type cells (EGFR wild-type cells): less pronounced impact
COC(=O)c1ccccc1NC(=O)Cn1cc(-c2nc(-c3ccc(C)cc3)no2)ccc1=O [D-7] |  |  |  | > 100 | 
CCN(CC)c1ccc(/C=C2/C(=O)NC(=O)N(c3ccc(Cl)cc3)C2=O)c(OC)c1 [D-2] |  |  |  |  | IC50 (LSD1 [1]): > 100 µM
Cc1noc(-c2ccc(=O)n(CC(=O)Nc3ccccc3Br)c2)n1 [D-16] | 0.5 | −2.33 | 51.97 | 28.7 | IC50 [3, 15]: 59.6 µM; IC50 [4]: 2.72 µM
COC(=O)c1sccc1NC(=O)Cn1cc(-c2nc(-c3ccc(C)cc3)no2)ccc1=O [D-15] |  |  |  | > 100 | 
Cc1ccc(-c2noc(-c3ccc(=O)n(CC(=O)Nc4ccccc4Br)c3)n2)cc1 [L-6] | 2.5 | −11.46 | 55.47 | 9.26 | Hillslope (LSD1 [1]): 1.86; Binding to LSD1 by SPR (in words) (LSD1 [6]): specific and reversible binding; Kd (LSD1 [6]; SPR, 15 °C, read-out: dissociation constant (KD)): 26.4 µM; IC50 [2]: 26.5 µM; IC50 [3, 15]: 28.5 µM; IC50 [4]: 8.99 µM
Cc1ccc(-c2noc(-c3ccc(=O)n(CC(=O)Nc4cccc(Br)c4)c3)n2)cc1 [D-8] |  |  |  | > 100 | 
CCCCNC(=O)Cn1cc(-c2nc(-c3ccc(C)cc3)no2)ccc1=O [D-13] |  |  |  | > 100 | 
CCN(CC)c1ccc(/C=C2/C(=O)NC(=O)N(c3ccc(Cl)cc3)C2=O)c(O)c1 [L-1] | 3.7 | −4.65 | 51.52 |  | IC50 (LSD1 [1]): 6.24 µM; Hillslope (LSD1 [1]): 1.26; Binding to LSD1 by SPR (in words) (LSD1 [6]): specific and reversible binding; Kd (LSD1 [6]): 18.2 µM; IC50 [3]: 5.01 µM; cell proliferation, PC9 [7, 16]: significantly inhibited; efficacy after LSD1 knockdown, PC9 [7, 17]: less effective; cell proliferation, H1975 [8, 16]: significantly inhibited; efficacy after LSD1 knockdown, H1975 [8, 17]: less effective; cell proliferation, H460 [9]: not have effect; cell proliferation, H1299 [10]: not have effect; tumor growth rate [11]: slower growth rate; tumor size [11]: smaller tumor size; tumor weight [11]: lighter tumor weight; body weight of nude mice [12]: did not affect; level of Ki67 (IHC) (Ki67): significantly suppressed; LSD1/EGFR relevant downstream signaling pathways (Western blot) [13]: could inhibit; IC50 [4]: 5.58 µM

— paper PMC11950244, “Discovery of novel dual-target inhibitors of LSD1/EGFR for non-small cell lung cancer therapy” (Acta Pharmacologica Sinica, 2025)
